Consider 6 compounds from patent publication US20240400564A1 (Syndax Pharmaceuticals, Inc, priority 2021, published 2024).

pIC50, pKi: −log10 of the molar value.

Data set [1] has as its target T1, human Menin and N-terminal portion of human MLL (amino acids 4-43) (Homo sapiens, UniProt O00255).
T1 construct: H-FL-Menin diluted to 4 nM in assay buffer
T1 sequence (O00255 1-610): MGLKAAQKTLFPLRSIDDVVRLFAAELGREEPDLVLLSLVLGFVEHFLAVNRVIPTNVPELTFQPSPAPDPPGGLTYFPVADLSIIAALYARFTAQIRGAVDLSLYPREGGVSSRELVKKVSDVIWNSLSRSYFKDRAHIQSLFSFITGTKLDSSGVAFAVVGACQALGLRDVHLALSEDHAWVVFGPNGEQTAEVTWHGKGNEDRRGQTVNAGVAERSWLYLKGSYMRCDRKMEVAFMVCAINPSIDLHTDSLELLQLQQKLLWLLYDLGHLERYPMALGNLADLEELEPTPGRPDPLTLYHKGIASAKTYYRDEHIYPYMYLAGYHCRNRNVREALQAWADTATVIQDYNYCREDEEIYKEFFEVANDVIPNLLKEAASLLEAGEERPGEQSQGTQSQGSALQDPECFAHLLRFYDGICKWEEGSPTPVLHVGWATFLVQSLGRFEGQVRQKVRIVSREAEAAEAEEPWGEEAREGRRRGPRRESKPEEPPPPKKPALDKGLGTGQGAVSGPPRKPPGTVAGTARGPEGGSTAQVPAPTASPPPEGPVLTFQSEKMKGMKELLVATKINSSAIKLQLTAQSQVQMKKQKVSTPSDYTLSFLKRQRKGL
Kind of data set: Menin-MLL competition assay (HTRF). Format: binding. The conditions noted are these: 1 hr incubation. A digest of the protocol:
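HTRF competition: 1 nM His-tagged full-length Menin with 2 nM Tb-anti-His6 and 1 nM FITC-MLL(4-43), 1 h at room temperature in Tris pH 7.4 buffer with DTT, BSA, Triton X-100; 3.16-fold compound series, 2% DMSO. Ratio 520/485 normalized to DMSO and 1 μM reference-compound controls for IC50.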

The next data set has as its target T2, Menin-MLL (Homo sapiens, UniProt O00255).
T2 sequence (O00255 1-610): T1 sequence (O00255 1-610)
The data set is described as follows: Determination of binding constants to Menin-MLL (HTRF, EC50 and Ki). Conditions: 0.25 nM H-FL-Menin, 3.2 nM FITC-MLL-4-43, 24 hr incubation. (In TR-FRET formats the signal depends on donor and acceptor labels being close together.)

Data set [2] relates to MLLr leukemia cell line MV4-11. Kind of data set: Cell proliferation assay MV4;11 (CellTiter-Glo, 72 hours). Format: cell-based. The conditions noted are these: Homo sapiens; MV4-11 cells, 72 hours, CellTiter-Glo; read-out: MV4; 11 IC50. A digest of the protocol:
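Cells in IMDM/10% FBS, seeded from a 15,000 cells/ml suspension, were exposed for 72 h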

Another data set concerns the target hERG (Homo sapiens, UniProt Q12809). The data set is described as follows: Patch clamp assay (hERG tail currents, whole-cell). On the technique in general: In patch-clamp work, channel activity is measured electrically.

Chain of hERG (Q12809 whole entry): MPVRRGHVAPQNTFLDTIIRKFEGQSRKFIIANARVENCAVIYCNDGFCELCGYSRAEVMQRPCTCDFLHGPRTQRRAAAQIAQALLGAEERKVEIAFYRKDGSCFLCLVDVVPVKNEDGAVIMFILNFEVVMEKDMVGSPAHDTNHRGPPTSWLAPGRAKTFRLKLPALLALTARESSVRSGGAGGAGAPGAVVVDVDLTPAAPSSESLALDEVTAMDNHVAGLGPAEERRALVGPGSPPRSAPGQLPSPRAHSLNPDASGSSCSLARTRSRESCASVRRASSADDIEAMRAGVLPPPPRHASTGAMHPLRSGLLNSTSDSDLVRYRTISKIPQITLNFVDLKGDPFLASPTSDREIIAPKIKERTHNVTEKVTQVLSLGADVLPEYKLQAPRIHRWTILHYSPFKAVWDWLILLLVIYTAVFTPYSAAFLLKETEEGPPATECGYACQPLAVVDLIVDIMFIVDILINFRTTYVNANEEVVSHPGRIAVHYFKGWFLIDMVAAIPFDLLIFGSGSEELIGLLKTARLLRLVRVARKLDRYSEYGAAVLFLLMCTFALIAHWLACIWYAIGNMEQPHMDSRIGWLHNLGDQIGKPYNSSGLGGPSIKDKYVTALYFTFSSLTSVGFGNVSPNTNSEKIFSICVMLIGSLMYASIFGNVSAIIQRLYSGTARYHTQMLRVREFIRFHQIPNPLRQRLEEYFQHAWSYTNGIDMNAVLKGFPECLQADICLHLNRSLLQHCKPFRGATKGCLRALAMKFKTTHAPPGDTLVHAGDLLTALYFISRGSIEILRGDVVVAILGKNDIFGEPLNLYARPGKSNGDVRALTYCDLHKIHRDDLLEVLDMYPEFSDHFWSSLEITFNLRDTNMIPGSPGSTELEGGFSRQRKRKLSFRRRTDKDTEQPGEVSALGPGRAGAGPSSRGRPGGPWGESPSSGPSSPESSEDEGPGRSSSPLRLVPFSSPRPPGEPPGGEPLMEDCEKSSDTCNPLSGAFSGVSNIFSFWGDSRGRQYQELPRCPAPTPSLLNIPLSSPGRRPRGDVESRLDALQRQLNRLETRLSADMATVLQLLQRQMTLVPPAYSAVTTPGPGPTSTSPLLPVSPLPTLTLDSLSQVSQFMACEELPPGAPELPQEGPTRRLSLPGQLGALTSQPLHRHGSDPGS
Procedure for hERG: The 35 mm culture dishes upon which cells were seeded at a density allowing single cells to be recorded were placed on the dish holder of the microscope and continuously perfused (at approximately 1 mL/min) with the bath solution described in section 4.6. All solutions applied to cells including the pipette solution were maintained at room temperature (19° C. to 30° C.). After formation of a Gigaohm seal between the patch electrodes and individual hERG stably transfected HEK 293 cells (pipette resistance range: 2.0 MS to 7.0 MS; seal resistance range: >1GΩ) the cell membrane across the pipette tip was ruptured to assure electrical access to the cell interior (whole-cell patch-configuration). In case the quality of the seal was poor, the process of seal formation was repeated with a different cell and a new pipette. As soon as a stable seal could be established, hERG outward tail currents were measured upon depolarization of the cell membrane to +20 mV for 2 s (activation of channels) from a holding potential of −80 mV and upon subsequent repolarization to −40 mV for 3 s. This voltage protocol (as shown below) was run at least 10 times at intervals of 10 s. If current density was judged to be too low for measurement, another cell was recorded.
During wash-in of the test item the voltage protocol indicated above was run continuously again at 10 s intervals until the steady-state level of block was reached.
The IC50 was determined by fitting the dose response curve with a 2-parameter logistic function (amax=100%).

`CCCNC(=O)N[C@@H]1CC[C@@H](CN2CCC3(CC2)CN(c2ncncc2Oc2ccc(F)cc2C(=O)N(CC)C(C)C)C3)OC1` [Example 38, N-Ethyl-5-fluoro-N-isopropyl-2-((4-(7-(((2S,5R)-5-(3-propylureido)tetrahydro-2H-pyran-2-yl)methyl)-2,7-diazaspiro[3.5]nonan-2-yl)pyrimidin-5-yl)oxy)benzamide] showed a pIC50 in data set [1] above 7.00. Moreover, the “Menin-MLL Ki HTRF Assay: EC50 (nM)” value on Menin-MLL was “++ (250 nM and <100 nM)”.

In the case of `CCN(C(=O)c1cc(F)ccc1Oc1cncnc1N1CC2(CCN(C[C@@H]3CC[C@@H](NC(=O)NCC(F)F)CO3)CC2)C1)C(C)C` [Example 41, 2-((4-(7-(((2S,5R)-5-(3-(2,2-Difluoroethyl)ureido)tetrahydro-2H-pyran-2-yl)methyl)-2,7-diazaspiro[3.5]nonan-2-yl)pyrimidin-5-yl)oxy)-N-ethyl-5-fluoro-N-isopropylbenzamide], the pIC50 in data set [1] is above 7.00. For the same compound, the “Menin-MLL Ki HTRF Assay: EC50 (nM)” value on Menin-MLL is “++ (250 nM and <100 nM)”.

Consider `CC(C)N(C(=O)c1cc(F)ccc1Oc1cncnc1N1CC2(CCN(C[C@@H]3CC[C@@H](NS(=O)(=O)C4CC4)CO3)CC2)C1)[C@H]1CCOC1` [Example 176, 2-((4-(7-(((2S,5R)-5-(Cyclopropanesulfonamido)tetrahydro-2H-pyran-2-yl)methyl)-2,7-diazaspiro[3.5]nonan-2-yl)pyrimidin-5-yl)oxy)-5-fluoro-N-isopropyl-N-((S)-tetrahydrofuran-3-yl)benzamide], for which the pIC50 in data set [2] is above 7.00; on hERG, below 4.30. The same compound gave a pKi on Menin-MLL above 9.00. The “hERG % Remaining” value at hERG (10 μM compound), at hERG (30 μM compound) and on hERG (100 μM compound) was “+++ (≥66%)” each time.

As for `CC(C)N(C(=O)c1cc(F)ccc1Oc1cncnc1N1CC2(CCN(C[C@@H]3CC[C@@H](NS(=O)(=O)N(C)C)CO3)CC2)C1)[C@H]1CCOC1` [Example 177, 2-((4-(7-(((2S,5R)-5-((N,N-Dimethylsulfamoyl)amino)tetrahydro-2H-pyran-2-yl)methyl)-2,7-diazaspiro[3.5]nonan-2-yl)pyrimidin-5-yl)oxy)-5-fluoro-N-isopropyl-N-((S)-tetrahydrofuran-3-yl)benzamide], the pIC50 in data set [2] is above 7.00. In addition, the negative logarithm of the Ki (pKi) at Menin-MLL is above 9.00. Moreover, the “hERG % Remaining” value on hERG (10 μM compound) and at hERG (30 μM compound) was “+++ (≥66%)” each time.

`CCS(=O)(=O)N[C@@H]1CC[C@@H](CN2CCC3(CC2)CN(c2ncncc2Oc2ccc(F)cc2C(=O)N(C(C)C)[C@H]2C[C@@H](F)C2)C3)OC1` [Example 244, 2-((4-(7-(((2S,5R)-5-(ethylsulfonamido)tetrahydro-2H-pyran-2-yl)methyl)-2,7-diazaspiro[3.5]nonan-2-yl)pyrimidin-5-yl)oxy)-5-fluoro-N-((1s,3s)-3-fluorocyclobutyl)-N-isopropylbenzamide]: the pIC50 in data set [2] is above 7.00. This compound also gave a negative-log Ki (pKi) on Menin-MLL above 9.00. For the same compound, the “hERG % Remaining” value was “+++ (≥66%)” at hERG (10 μM compound); “++ (233% and ≤66%)” on hERG (30 μM compound).

Regarding `CCS(=O)(=O)N[C@@H]1CC[C@@H](CN2CCC3(CC2)CN(c2ncncc2Oc2ccc(F)cc2C(=O)N(C(C)C)[C@H]2C[C@H](C(F)F)C2)C3)OC1` [Example 246, N-((1r,3r)-3-(Difluoromethyl)cyclobutyl)-2-((4-(7-(((2S,5R)-5-(ethylsulfonamido)tetrahydro-2H-pyran-2-yl)methyl)-2,7-diazaspiro[3.5]nonan-2-yl)pyrimidin-5-yl)oxy)-5-fluoro-N-isopropylbenzamide], the pIC50 in data set [2] was above 7.00. The compound further had a pKi at Menin-MLL above 9.00.

As usually defined, the pKi is the negative decadic logarithm of the Ki, by convention in mol/L. A lower pKi goes with a high Ki.
